Test results from patent US10413532B2, “Pharmaceutical compositions containing a PDE4 inhibitor and a PI3 delta or dual PI3 delta-gamma kinase inhibitor” (Rhizen Pharmaceuticals SA, priority 2012, dated 2019).

Key:
neutrophil infiltration = assay: Lipopolysaccharide induced pulmonary neutrophilia in female Wistar rats; assay type: in vivo
Procedure: After the quarantine period, fasted animals were randomized and divided into groups depending on their body weights. Test compound was prepared as a suspension in a vehicle consisting of 0.5% methylcellulose in which Tween 80 was used as a suspending agent. Compounds or vehicle were administered by oral gavage in a volume of 10 mL/kg. Animals were anaesthetized with ketamine and LPS solution was administered intratracheally 30 minutes after compound administration at a dose of 1 mg/kg. Six hours after LPS instillation, animals were exsanguinated under anaesthesia, and the trachea was cannulated, and lungs were lavaged with 5-ml aliquots of heparinised PBS (1 unit/ml) four times through the tracheal cannula (total volume 20 ml). Bronchioalveolar (BAL) fluid was stored at 2-8° C. until assayed for total cell and differential leukocyte count. BAL fluid was centrifuged (500×g for 10 min) and the resulting cell pellet was resuspended in 0.5 ml of heparinised saline. The total numbers of white blood cells were determined in BAL fluid or blood using a cell counter and were adjusted to 1×10^6 cell/ml. Differential cell count was calculated manually. One hundred microliters of the cell suspension was centrifuged using cytospin 3 to prepare a cell smear. The cell smear was stained with a blood staining solution for differentiation and slides were microscopically observed to identify eosinophils according to their morphological characteristics. The number of each cell type among 300 white blood cells in the cell smear was determined and expressed as a percentage of total cells. The number of eosinophil in BALF was calculated.
The procedure for LPS induced pulmonary neutrophilia in female Wistar rats as described in Example 1 was performed with compound A1 and roflumilast.

TNFα = assay: LPS induced TNFα in PBMC; assay type: cell-based; conditions: 10 nM alone, LPS
Procedure: PBMC (peripheral blood mononuclear cells) from whole blood were isolated by density gradient using Histopaque and incubated with the desired concentration of inhibitor for 15 minutes. LPS (1 μg/ml) was added and then incubated for 24 hours. The supernatant was collected and TNFα estimated using an eBioscience TNFα ELISA kit.
PBMC from whole blood were isolated by density gradient using Histopaque and incubated with the desired concentration of inhibitor for 15 minutes. LPS (1 μg/m1) was added and then incubated for 24 hours. The supernatant was collected and TNFα estimated using an eBioscience TNFα ELISA kit.

MMP-9 = MMP-9 release from PMA-induced THP-1 cells (gelatin zymography); assay type: cell-based, human; conditions: Homo sapiens; compound alone; THP-1 cells, PMA; read-out: IC50 for the reduction of MMP-9
Procedure: Gelatinase activity of MMP-9 was determined by zymography. Proteins in supernatant (after incubation of THP-1 cells with 50 ng PMA for 24 h) were separated on gels containing 0.1% gelatin (Sigma, USA). Gels were re-natured by incubation in 2.5% Triton X-100 for 30 min, incubated overnight in substrate buffer (50 mMTris-HCl, pH 7.5) containing 10 mM CaCl2 and 0.05% ZnCl2 at 37° C. and stained with Coomassie brilliant blue (0.5%). […] Molecular weight markers (Fermentas, Lithuania) were run with each gel. Band intensity was calculated using ImageJ 1.42 (NIH, USA).

pAkt (S473) = assay: phospho-Akt (S473) in differentiated U937 cells stimulated with cigarette smoke extract (SDS-PAGE); assay type: cell-based; conditions: Homo sapiens, U-937; compound alone; differentiated U937, CSE; read-out: IC50 of inhibition of Akt phosphorylation
Procedure: U-937 monocytes were differentiated into macrophages by incubation with 50 ng/ml PMA for 48 h. Cells were trypsinized and plated at a density of 100,000 per well and stimulated with CSE for 2 h in starvation media. Lysates were made using RIPA buffer and run by SDS-PAGE, transferred to PVDF membrane and probed with phospho-Akt (S473) antibody (Cell signaling, USA) followed by anti-rabbit IgG (Cell signaling, USA). Band intensity was calculated using ImageJ 1.42 (NIH, USA).

A549 cells = assay: Cell cycle analysis / CSE induced apoptosis in A549 cells; assay type: cell-based; conditions: compound alone, CSE 72 h
Procedure: A549 cells were plated in 6-well plates at a density of 100,000 cells per well and stimulated with CSE for 72 h. After incubation, cells were fixed in 70% ethanol and stored at 4° C. till analysis. Cells were stained with Guava Cell Cycle reagent according to the manufacturer's instructions. Cell cycle data were obtained using the Guava Personal Cell Analysis System (Millipore, USA).

[1] = tested on: macrophage and neutrophil infiltration; assay: Chronic cigarette smoke induced cell infiltration in male Balb/c mice; assay type: in vivo; conditions: alone at 1 mg/kg oral; chronic CS, mouse
Procedure: Animals were acclimatized for seven days prior to the start of the experiment. Animals were randomly distributed to various groups based on their body weights. Mice were exposed to the mainstream smoke of 4 cigarettes from day 1 to day 11. Exposure to the smoke of each cigarette lasted for […] (each cigarette was completely burned in the first two minutes, followed by an air flow with animal ventilator) and were exposed for the next 20 min with fresh room air. After every second cigarette an additional break of 20 min with exposure to fresh room air was conducted. Control animals were exposed to the room air chamber. Test compound was administered by the oral route from day 6 to day 11 before 30 mins whole body smoke exposure. On day 12, 24 hours after the last cigarette smoke (CS) exposure animals were exsanguinated under anaesthesia, and the trachea was cannulated and the lungs were lavaged with 0.5 ml aliquots of heparinised PBS (1 unit/nil) four times through tracheal cannula (total volume 2 ml). Bronchioalveolar (BAL) collected was stored at 2-8° C. until assayed for total cell and differential leukocyte count. BAL fluid was centrifuged (500×g for 10 min) and the resulting cell pellet was resuspended in 0.5 ml of heparinised saline. The total number of white blood cells was determined in BAL fluid and blood using a blood cell counter and adjusted to 1×10^6 cell/ml. Differential cell count was calculated manually Forty microliters of the cell suspension was centrifuged using cytospin 3 to prepare a cell smear. The cell smear was stained with a blood staining solution for differentiation and microscopically observed by identifying each cell according to its morphological characteristics. The number of each cell type among 300 white blood cells in the cell smear was determined and expressed as a percentage, and the number of neutrophils and macrophages in each BAL fluid were calculated.

elastase = assay: fMLP induced elastase release from human neutrophils; assay type: cell-based; conditions: Neutrophil, compound alone
Procedure: Blood was procured from a local blood bank. Neutrophils were obtained using the dextran sedimentation method. Cells were plated at 100,000 cells per well in a 96-well plate, treated with fMLP (1 μM) and N-Succinyl-Ala-Ala-Ala-p-nitroanalide (1 μM) (Sigma) and incubated for 2 h. Intensity of digested substrate after incubation was determined by measuring the absorbance at 405 nm on a Fluostar Omega (BMG Labtech, NC, USA).

Question: What does the source list for `O=C(Nc1c(Cl)cncc1Cl)c1ccc(OC(F)F)c(OCC2CC2)c1` [Compound A, roflumilast, reference compound]?
Answer: percent inhibition of neutrophil infiltration (neutrophil infiltration; 0.3 mg/kg oral, rat BAL fluid 6 h after LPS): −7.89%; percent inhibition of neutrophil infiltration (neutrophil infiltration; 1 mg/kg oral, dose-response study, rat): 43.46%; percent inhibition of neutrophil infiltration (neutrophil infiltration; 3 mg/kg oral, rat): 68.02%; percent inhibition of neutrophil infiltration (neutrophil infiltration; 10 mg/kg oral, rat): 92.21%; ED50 (neutrophil infiltration; Neutrophil, oral, rat LPS pulmonary neutrophilia, read-out: 50% inhibition (ED50) dose, neutrophil infiltration): 1.8 mg/kg; inhibition of neutrophil infiltration (neutrophil infiltration; combination study, alone at 1.8 mg/kg, rat): 36.18%; decrease of TNFα secretion (TNFα): 25%; IC50 (MMP-9): 577 nM; IC50 (pAkt (S473)): 1930 nM; inhibition of apoptosis (A549 cells): dose-dependent inhibition of apoptosis; inhibition of macrophage infiltration [1]: 6.30%; inhibition of neutrophil infiltration [1]: 34.60%; Emax (elastase; Homo sapiens, read-out: Emax of inhibition of elastase release): 43%; IC50 (elastase; human neutrophils, read-out: IC50 of inhibition of fMLP induced elastase release): 10.2 nM
